Common to all, as to type: cell-based
Experiment [1] has as its system Crypt. neoformans MY1051. Put plainly: Minimum fungicidal concentration, yeast: Crypt. neoformans MY1051. To be noted: Cryptococcus neoformans, no growth or no more than three colonies. As for the experimental part:
(§1) The compounds are particularly active towards filamentous fungi and yeasts including Candida albicans and Crypt. neoformans. The sensitivity of filamentous fungi and yeast was determined using inhibitor dilution assays in microtiter format. The compounds were dissolved in DMSO at 2 mg/ml and serially diluted in 0.1 M phosphate buffer, pH 7.0 in the microtiter dish from 100 to 0.006 μg/ml. A standardized spore suspension for testing the filamentous fungi was prepared by inoculating Antibiotic Medium #3 containing 1.5% agar with spores such that 1.5×10^3 colony forming units were added per we11. The microtiter wells were filled with 50 μl of buffer containing compound and 50 μl of inoculated medium. The sensitivity of yeasts was determined by inoculating yeast nitrogen base containing 1% dextrose (YNB/G) with aliquots of an overnight yeast culture grown in Yeast Morphology (YM) media at 35° C. and diluting in YNB/G to yield a final concentration of 1.5-7.5×10^3 colony forming units/well. One hundred fifty μl of inoculated media was added per well. To test the sensitivity of yeast, compound was solubilized in 10 percent aqueous DMSO at 2.56 mg/ml. The compound was diluted serially in YNB/G from 128 to 0.06 μg/ml. The wells were filled with 150 μl of drug containing media. […]

The next experiment relates to Pen. italicum MF2819. The experiment is described as follows: Inhibitor dilution assay in microtiter format, filamentous fungi: Pen. italicum MF2819. The following applies: Penicillium italicum; Pen. italicum MF2819, 42 hours, 28° C.; read-out: Minimum Inhibitory Concentration. As for the experimental part:
as §1

The next experiment deals with C. parapsilosis MY1010. Put plainly: Inhibitor dilution assay in microtiter format, yeast MIC: C. parapsilosis MY1010. To be noted: Lodderomyces parapsilosis; C. parapsilosis MY1010, 24 to 48 hours, 35° C.; read-out: Minimum Inhibitory Concentration. On the procedure: as §1
A further experiment relates to A. flavus MF383. Put plainly: Inhibitor dilution assay in microtiter format, filamentous fungi: A. flavus MF383. The following applies: Aspergillus flavus; A. flavus MF383, 42 hours, 28° C.; read-out: Minimum Inhibitory Concentration. As for the experimental part: as §1
The test system of experiment [2] is Crypt. neoformans MY1051. The experiment is described as follows: Inhibitor dilution assay in microtiter format, yeast MIC: Crypt. neoformans MY1051. To be noted: Cryptococcus neoformans; Crypt. neoformans MY1051, 24 to 48 hours, 35° C.; read-out: Minimum Inhibitory Concentration. As for the experimental part:
as §1

In experiment [3] the test system is C. albicans MY1055. The experiment is described as follows: Minimum fungicidal concentration, yeast: C. albicans MY1055. The following applies: Candida albicans, no growth or no more than three colonies. As for the experimental part: as §1
A further experiment concerns Fus. oxysproum MF4014. Put plainly: Inhibitor dilution assay in microtiter format, filamentous fungi: Fus. oxysproum MF4014. The following applies: Fus. oxysproum MF4014, 42 hours, 28° C.; read-out: Minimum Inhibitory Concentration. As for the experimental part: as §1
A further experiment relates to C. tropicalis MY1012. The experiment is described as follows: Inhibitor dilution assay in microtiter format, yeast MIC: C. tropicalis MY1012. The following applies: Candida tropicalis; C. tropicalis MY1012, 24 to 48 hours, 35° C.; read-out: Minimum Inhibitory Concentration. As for the experimental part: as §1
A further experiment relates to A. fumigatus MF4839. Put plainly: Inhibitor dilution assay in microtiter format, filamentous fungi: A. fumigatus MF4839. To be noted: Aspergillus fumigatus; A. fumigatus MF4839, 42 hours, 28° C.; read-out: Minimum Inhibitory Concentration. On the procedure:
as §1

Experiment [4] concerns C. albicans MY1055. Put plainly: Inhibitor dilution assay in microtiter format, yeast MIC: C. albicans MY1055. The following applies: Candida albicans; C. albicans MY1055, 24 to 48 hours, 35° C.; read-out: Minimum Inhibitory Concentration. As for the experimental part: as §1
A further experiment relates to C. tropialis MY1012. The experiment is described as follows: Minimum fungicidal concentration, yeast: C. tropialis MY1012. The following applies: no growth or no more than three colonies. On the procedure:
as §1

For another experiment, the system named is C. parasilosos MY1010. Put plainly: Minimum fungicidal concentration, yeast: C. parasilosos MY1010. To be noted: no growth or no more than three colonies. As for the experimental part:
as §1

The next experiment deals with A. niger MF442. The experiment is described as follows: Inhibitor dilution assay in microtiter format, filamentous fungi: A. niger MF442. To be noted: Aspergillus niger; A. niger MF442, 42 hours, 28° C.; read-out: Minimum Inhibitory Concentration. On the procedure:
as §1

Another experiment concerns Coch. miyabeanus MF4626. Put plainly: Inhibitor dilution assay in microtiter format, filamentous fungi: Coch. miyabeanus MF4626. The following applies: Bipolaris oryzae, MF4626, 42 h, read-out: Minimum Inhibitory Concentration. As for the experimental part: as §1
A further experiment concerns T. Mentagrophytes MF4864. Put plainly: Inhibitor dilution assay in microtiter format, filamentous fungi: T. Mentagrophytes MF4864. The following applies: Trichophyton mentagrophytes; T. Mentagrophytes MF4864, 42 hours, 28° C.; read-out: Minimum Inhibitory Concentration. On the procedure:
as §1

Values after ≈ are worked out from the molar mass of the structure shown. Where only a bound is given, the exact number is not on record here.

Regarding `CC=CCCCCC=CCCCCC(=O)OC1C(O)C2(CCC(C)C(O)C(C)CC=Cc3ccccc3)OC(C(=O)O)C(O)(C(=O)O)C1(C(=O)O)O2` (stereo not shown) [Compound A], the MFC (commonly the lowest tested concentration that kills the fungus rather than only halting it) is 2 µg/mL (≈ 2.74 µM) in the experiment on Crypt. neoformans MY1051 [1], 4 µg/mL (≈ 5.47 µM) against C. albicans MY1055 [3], 1 µg/mL (≈ 1.37 µM) against C. tropialis MY1012 and 1 µg/mL (≈ 1.37 µM) against C. parasilosos MY1010. For the same compound, the MIC in the experiment with Pen. italicum MF2819 was 0.025 µg/mL (≈ 0.0342 µM); in the experiment with C. parapsilosis MY1010 it was 4 µg/mL (≈ 5.47 µM); in the experiment on A. flavus MF383, 0.098 µg/mL (≈ 0.134 µM); in the experiment with Crypt. neoformans MY1051 [2] it was 4 µg/mL (≈ 5.47 µM); with Fus. oxysproum MF4014, more than 100 µg/mL; in the experiment with C. tropicalis MY1012 it was 4 µg/mL (≈ 5.47 µM). The MIC with A. fumigatus MF4839 was determined as 0.098 µg/mL (≈ 0.134 µM); in the experiment on C. albicans MY1055 [4], 8 µg/mL (≈ 10.9 µM); with A. niger MF442, 100 µg/mL (≈ 137 µM); with Coch. miyabeanus MF4626, 1.6 µg/mL (≈ 2.19 µM).
On to `CC=CCCCCC=CCCCCC(=O)OC1C(O)C2(CCC(C)C(O)C(C)CC=Cc3ccccc3)OC(C(=O)OC)C(O)(C(=O)OC)C1(C(=O)OC)O2` (stereo not shown) [Compound B], for which the MIC in the experiment on T. Mentagrophytes MF4864, in the experiment on C. parapsilosis MY1010, in the experiment on A. flavus MF383, with Crypt. neoformans MY1051 [2], in the experiment on C. tropicalis MY1012 and in the experiment on A. fumigatus MF4839 was more than 128 µg/mL in each case. In addition, in the experiment with C. albicans MY1055 [4], the MIC was more than 128 µg/mL. Also, the minimum fungicidal concentration (MFC) in the experiment on Crypt. neoformans MY1051 [1], against C. albicans MY1055 [3], against C. tropialis MY1012 and against C. parasilosos MY1010 was more than 128 µg/mL in each case.

The values are drawn from patent US5055487A, “Novel anti-fungal compounds” (Merck & Co., Inc., priority 1990, dated 1991).
